Source: patent publication US6730666B1, “Pharmaceutical compositions comprising porphyrins and some novel porphyrin derivatives” (Yeda Research and Development Co. Ltd., priority 1998, dated 2004)
Read-outs that look alike come from different tables or passages of the source.

What was measured:
soluble FGFR-1 (FRAP) = biological target: T1, soluble FGFR-1 (FRAP) (Mus musculus, UniProt P16092); assay: Binding of 125I-bFGF to immobilized soluble FGFR-1 (FRAP), cell-free
T1 sequence (P16092 22-376 limits assumed): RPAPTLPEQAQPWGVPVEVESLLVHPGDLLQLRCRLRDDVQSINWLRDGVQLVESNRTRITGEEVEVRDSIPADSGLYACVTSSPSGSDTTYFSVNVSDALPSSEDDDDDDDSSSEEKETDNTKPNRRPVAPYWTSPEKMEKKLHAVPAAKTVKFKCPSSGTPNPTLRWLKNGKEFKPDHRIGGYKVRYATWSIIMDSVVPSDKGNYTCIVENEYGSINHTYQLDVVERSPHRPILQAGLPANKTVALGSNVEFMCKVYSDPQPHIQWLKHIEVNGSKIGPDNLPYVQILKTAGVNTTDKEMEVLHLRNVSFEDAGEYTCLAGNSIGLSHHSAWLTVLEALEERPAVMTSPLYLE
Excerpt: First we utilized a cell-free system, measuring the binding of radiolabeled bFGF to a dimeric soluble FGFR-1 fused to alkaline phosphatase. […] As a: second experimental model, we used CHO cells deficient in heparan sulfate and genetically engineered to express FGFR-1 (Methods, section (iv)).

FGFR-1 [1] = biological target: T2, FGFR-1 (Mus musculus, UniProt P16092); assay: Binding of 125I-bFGF to CHO cells expressing FGFR-1
Excerpt: First we utilized a cell-free system, measuring the binding of radiolabeled bFGF to a dimeric soluble FGFR-1 fused to alkaline phosphatase. The soluble FRAP was immobilized using an anti-alkaline phosphatase antibody prebound to agarose-protein A beads (see Methods, section (iii)). As a: second experimental model, we used CHO cells deficient in heparan sulfate and genetically engineered to express FGFR-1 (Methods, section (iv)).

[2] = tested on: Lewis lung carcinoma (LLC) lung metastasis; assay: Lewis lung carcinoma lung metastasis model; assay type: in vivo, C57 black mice; parameters: Inhibitory activity in vivo, LLC tumor model (as % of total inhibition): reference not given here; details: for Inhibitory activity in vivo, LLC tumor model (as % of total inhibition): 25 μg/gram, LLC murine tumor model, lung metastasis
Method: (vii) Lewis lung carcinoma tumor assay. Murine Lewis lung carcinoma (LLC) D122 cells (1×10^6 cells/[…] PBS) were injected into the foot pads of 10-week old C57 black mice (O'Reilly et al, 1994). Twenty five μg/g of body mass of porphyrin or corrole compound dissolved in PBS were injected IP twice a week to the treated group, and tumor size was measured periodically in order to follow primary tumor formation. In order to evaluate inhibition of lung metastasis by porphyrin or corrole compound, the primary tumors were allowed to develop over a period of six weeks to a volume of approximately 8 mm^3; after which the tumors were removed and metastases were allowed to develop for four weeks. During this time the treated group received 25 μg/g of body mass of porphyrin or corrole compound IP twice a week. Subsequently the mice were sacrificed, dissected and the lungs removed and photographed. The extent of lung metastasis was measured by weighing the lungs.
After establishing the capacity of P1 to inhibit primary tumor growth, the capacity of P1 to inhibit lung metastasis formation was measured as described in Methods, section (vi). Mice were injected with LLC cells (200,000 cells per mouse) into the foot pad and primary tumors were allowed to develop over a period of 3 to 4 weeks to a volume of approximately 8 mm^3. Subsequently, primary tumors were removed through amputation and lung metasases were allowed to develop for four weeks before the mice were sacrificed. The extent of lung metastasis at this point was examined by gross morphological examination and by determining the gain in lung weight. […] In order to quantitate the results from these experiments, the lungs from all mice were weighed and evaluated for the extent of metastatic growth.

FGFR-1 [3] = biological target: T2, FGFR-1; assay: Covalent cross-linking of 125I-bFGF to CHO cells transfected with FGFR-1; assay type: binding; parameters: expressed in transfected cells; host or cells: CHO cells deficient in heparan sulfate; details: FIG. 2
Method: Binding of ^125I-bFGF to confluent monolayers of PGFR-1 expressing CHO cells or ^125I-FGF9 to FGFR-3 expressing CHO cells, was performed as described in Methods, section (iv), in the presence or absence of P1 (Inhibitor). After 90 min, disuccinylimidyl suberate [DSS]
(iv) Binding of ^125I-bFGF and ^125I-FGF9 to cells. Confluent cultures of CHO cells expressing FGFR-1(Yayon et al, 1991) or FGFR-3 (Hecht et al, 1995) in 24-well plates (Falcon) were precooled and washed twice with cold DMEM supplemented with 20 mM Hepes (pH 7.5) and 0.1% bovine serum albumin (DMEM/BSA). They were then incubated for 1.5 h at 4° C. with ^125I-bFGF (2 ng/ml) and increasing concentrations of porphyrin/corrole compound. The binding medium was discarded and the cells were washed once with ice-cold DMEM/BSA and twice with cold PBS (pH 7.5) containing 1.6M NaCl. […] Non-specific binding was determined in the presence of a 100-fold excess of unlabeled bFGF.
In order to unequivocally determine the specificity of the binding inhibition, chemical cross-linking of ^125I-bFGF and ^125I-FGF9 to CHO cells transfected with FGFR-1 and FGFR-3, respectively, was carried out as described in Methods, section (iv), in the absence or presence of increasing concentrations of P1.

[4] = biological target: T3, FGFR-1 alkaline phosphatase fusion protein (FRAP) (Mus musculus, UniProt P16092); assay: Binding of soluble FGFR-1 alkaline phosphatase fusion protein (FRAP) to bFGF immobilized on heparin (Screen AP assay); details: binding of FGF to FGFR; Methods section (ii); read-out: Screen AP assay (IC50)
T3 construct: soluble FGFR-1 ectodomain alkaline phosphatase fusion protein (FRAP); made in house; host or cells: NIH 3T3 cells (conditioned medium)
T3 sequence (P16092 22-376 limits assumed): T1 sequence (P16092 22-376 limits assumed)
Method: (ii) Binding of soluble FGFR-1 alkaline phosphatase fusion protein (FRAP) to immobilized bFGF. […] The end-point of the assay measured enzymatically the formation of FGF-receptor complexes quantitated by the specifically associated alkaline phosphatase (AP) catalyzed chromogenic product.
Subsequently, 200 μl of FRAP condition medium and porphyrin/corrole compound were added and incubated together for 2 h.
In order to identify inhibitors of FGF-FGFR interactions, an assay for testing FGFR-ligand binding was developed. The system is composed of bFGF bound to a heparin matrix to which soluble FGFR-1 ectodomain alkaline phosphatase fusion protein (FRAP) and the screened compounds are added (see Methods, section (ii)).

[5] = read-out: Soluble receptor binding (IC50), binding of FGF to FGFR, Methods section (iii)
[6] = read-out: Cellular receptor binding (IC50), binding of FGF to FGFR, Methods section (iv)

T2 sequence (P16092 22-822): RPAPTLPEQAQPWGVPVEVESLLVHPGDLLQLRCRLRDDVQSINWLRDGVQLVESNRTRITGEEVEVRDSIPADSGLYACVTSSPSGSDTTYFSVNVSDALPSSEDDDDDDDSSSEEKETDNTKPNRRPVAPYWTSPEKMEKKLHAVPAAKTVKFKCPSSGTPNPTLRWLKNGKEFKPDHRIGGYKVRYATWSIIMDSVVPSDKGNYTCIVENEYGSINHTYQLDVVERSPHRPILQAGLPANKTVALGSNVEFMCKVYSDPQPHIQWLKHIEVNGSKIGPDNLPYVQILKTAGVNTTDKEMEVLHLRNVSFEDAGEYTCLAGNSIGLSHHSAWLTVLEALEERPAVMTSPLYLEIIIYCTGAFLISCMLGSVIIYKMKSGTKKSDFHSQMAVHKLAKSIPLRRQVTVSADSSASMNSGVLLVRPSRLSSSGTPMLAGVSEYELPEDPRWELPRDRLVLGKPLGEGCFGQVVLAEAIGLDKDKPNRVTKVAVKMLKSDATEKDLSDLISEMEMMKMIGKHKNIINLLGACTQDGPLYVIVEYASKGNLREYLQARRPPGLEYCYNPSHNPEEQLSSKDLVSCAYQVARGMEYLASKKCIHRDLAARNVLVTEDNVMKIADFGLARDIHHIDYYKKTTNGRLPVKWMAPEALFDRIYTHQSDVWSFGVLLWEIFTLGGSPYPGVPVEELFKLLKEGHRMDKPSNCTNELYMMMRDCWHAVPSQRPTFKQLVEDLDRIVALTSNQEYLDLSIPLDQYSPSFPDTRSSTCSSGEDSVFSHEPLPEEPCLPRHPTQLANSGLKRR

Compound	IC50 (FGFR-1 [1]) [nM]	IC50 [4] [nM]	Inhibitory activity in vivo, LLC tumor model (as % of total inhibition) [2] [%]	also measured
Cc1ccc(C(=O)Nc2ccc(S(=O)(=O)O)c3cc(S(=O)(=O)O)cc(S(=O)(=O)O)c23)cc1NC(=O)c1cccc(NC(=O)Nc2cccc(C(=O)Nc3cc(C(=O)Nc4ccc(S(=O)(=O)O)c5cc(S(=O)(=O)O)cc(S(=O)(=O)O)c45)ccc3C)c2)c1 [Suramin, reference compound]				Inhibition of bFGF-receptor complex formation (cross-linking), in words (FGFR-1 [3]): demonstrated FGF receptor binding inhibition
C[n+]1ccccc1-c1c(F)c(F)c(-c2c3nc(c(-c4c(F)c(F)c(-c5cccc[n+]5C)c(F)c4F)c4ccc([nH]4)c4ccc([nH]4)c(-c4c(F)c(F)c(-c5cccc[n+]5C)c(F)c4F)c4ccc2[nH]4)C=C3)c(F)c1F [Compound P21, 5,10,15-Tris[2,3,5,6-tetrafluorophenyl-4-(N-methyl-2-pyridylium)]-21H,23H-corrole triiodide]			200	Inhibition of bFGF binding to immobilized FRAP, in words (soluble FGFR-1 (FRAP); FIG. 8B): inhibit bFGF binding in vitro; Inhibition of lung metastasis in LLC model, in words ([2]; 25 μg/g of body mass IP): highly active in vivo; Concentration inhibiting lung metastasis formation in vivo ([2]; mouse, in vivo): 5 mg/kg body weight
C[n+]1ccccc1-c1c2nc(c(-c3cccc[n+]3C)c3ccc([nH]3)c(-c3cccc[n+]3C)c3nc(c(-c4cccc[n+]4C)c4ccc1[nH]4)C=C3)C=C2 (single isomer, unassigned) [Compound P7, 5,10,15,20-Tetrakis-(N-methyl-2-pyridylium)-21H,23H-porphine tetraiodide]			90	
C[n+]1cccc(-c2c3nc(c(-c4ccc[n+](C)c4)c4ccc([nH]4)c(-c4ccc[n+](C)c4)c4nc(c(-c5ccc[n+](C)c5)c5ccc2[nH]5)C=C4)C=C3)c1.Cc1ccc(S(=O)(=O)[O-])cc1.Cc1ccc(S(=O)(=O)[O-])cc1.Cc1ccc(S(=O)(=O)[O-])cc1.Cc1ccc(S(=O)(=O)[O-])cc1 [Compound P12, 5,10,15,20-Tetrakis(N-methyl-3-pyridylium)-21H,23H-porphine tetra-p-tosylate]			0	IC50 (soluble FGFR-1 (FRAP); [5]): 10000 nM; IC50 (FGFR-1 [1]; [6]): > 10000 nM
C[n+]1ccc(-c2c3nc(c(-c4cc[n+](C)cc4)c4ccc([nH]4)c(-c4cc[n+](C)cc4)c4nc(c(-c5cc[n+](C)cc5)c5ccc2[nH]5)C=C4)C=C3)cc1 [Compound P8, 5,10,15,20-Tetrakis-(N-methyl-4-pyridylium)-21H,23H-porphine tetraiodide]		95	90	IC50 (soluble FGFR-1 (FRAP); Soluble receptor binding (IC50), binding of FGF to FGFR, Methods section (iii)): 950 nM; IC50 (FGFR-1 [1]; Cellular receptor binding (IC50), binding of FGF to FGFR, Methods section (iv)): 1300 nM
COc1ccc(-c2c3nc(c(-c4ccc(OC)cc4)c4ccc([nH]4)c(-c4ccc(OC)cc4)c4nc(c(-c5ccc(OC)cc5)c5ccc2[nH]5)C=C4)C=C3)cc1 [Compound P3, 5,10,15,20-Tetrakis(4-methoxyphenyl)-21H,23H-porphine]		> 10000		
Tetrakis(4-cumyloxyphenoxy)phthalocyanine [Compound P4]		> 10000		
C[N+](C)(C)c1ccc(-c2c3nc(c(-c4ccc([N+](C)(C)C)cc4)c4ccc([nH]4)c(-c4ccc([N+](C)(C)C)cc4)c4nc(c(-c5ccc([N+](C)(C)C)cc5)c5ccc2[nH]5)C=C4)C=C3)cc1 [Compound P5, 5,10,15,20-Tetrakis[4-(trimethylammonio)phenyl]-21H,23H-porphine tetra-p-tosylate]	1800	100	75	IC50 (soluble FGFR-1 (FRAP)): 900 nM
C[n+]1cccc(-c2c3nc(c(-c4ccc[n+](C)c4)c4ccc([nH]4)c(-c4ccc[n+](C)c4)c4nc(c(-c5ccc[n+](C)c5)c5ccc2[nH]5)C=C4)C=C3)c1 [Compound P13, 5,10,15,20-Tetrakis(N-methyl-3-pyridylium)-21H,23H-porphine tetraiodide]	> 10000			IC50 (soluble FGFR-1 (FRAP)): > 10000 nM

Now from value to compound, other results behind:

IC50 (FGFR-1 [1]) [nM]	IC50 [4] [nM]	Compound	Inhibitory activity in vivo, LLC tumor model (as % of total inhibition) [2] [%]	also measured
100		C[n+]1ccc(-c2c3nc(c(-c4cc[n+](C)cc4)c4ccc([nH]4)c(-c4c(F)c(F)c(F)c(F)c4F)c4nc(c(-c5c(F)c(F)c(F)c(F)c5F)c5ccc2[nH]5)C=C4)C=C3)cc1 [Compound P18, 5,10-Bis(pentafluorophenyl)-15,20-bis(N-methyl-4-pyridylium)-21H,23H-porphine diiodide]	50	IC50 (soluble FGFR-1 (FRAP)): 75 nM
> 10000	500	O=C(O)c1ccc(-c2c3nc(c(-c4ccc(C(=O)O)cc4)c4ccc([nH]4)c(-c4ccc(C(=O)O)cc4)c4nc(c(-c5ccc(C(=O)O)cc5)c5ccc2[nH]5)C=C4)C=C3)cc1 [Compound P11, 5,10,15,20-Tetrakis(4-carboxylatophenyl) 21H,23H-porphine tetraammonium]		
	80	C[n+]1ccc(C2=Cc3cc4[nH]c(cc5nc(cc6[nH]c(cc2n3)cc6-c2cc[n+](C)cc2)C=C5c2cc[n+](C)cc2)cc4-c2cc[n+](C)cc2)cc1 [Compound P10, 3,8,13,18-Tetrakis(N-methyl-4-pyridylium)-21H,23H-porphine tetraiodide]		IC50 (soluble FGFR-1 (FRAP); [5]): 850 nM; IC50 (FGFR-1 [1]; [6]): 1900 nM
	100	C[n+]1ccc(-c2c3nc(c(-c4cc[n+](C)cc4)c4ccc([nH]4)c(-c4c(F)c(F)c(NCCCN)c(F)c4F)c4nc(c(-c5cc[n+](C)cc5)c5ccc2[nH]5)C=C4)C=C3)cc1 [Compound P19]		IC50 (FGFR-1 [1]; [6]): 2000 nM
30		C[n+]1ccc(-c2c3nc(c(-c4c(F)c(F)c(F)c(F)c4F)c4ccc([nH]4)c(-c4cc[n+](C)cc4)c4nc(c(-c5c(F)c(F)c(F)c(F)c5F)c5ccc2[nH]5)C=C4)C=C3)cc1 [Compound P17, 5,15-Bis(pentafluorophenyl)-10,20-bis(N-methyl-4-pyridylium)-21H,23H-porphine diiodide]	40	IC50 (soluble FGFR-1 (FRAP)): 20 nM
